Results as given in PubChem BioAssay (NCI).
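Five concentrations, 48 hours, 96-well plates. TGI: total growth inhibition.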

What was measured:
Experiment in all cases: inhibition of tumour cell growth, NCI panel, 48 h
786-0 renal = system: 786-0 renal
A498 renal = system: A498 renal
A549 NSCLC = system: A549 NSCLC
ACHN renal = system: ACHN renal
BT-549 breast = system: BT-549 breast
CAKI-1 renal = system: CAKI-1 renal
CCRF-CEM leukemia = system: CCRF-CEM leukemia
COLO 205 colon = system: COLO 205 colon
DLD-1 colon = system: DLD-1 colon
DMS 114 small cell lung = system: DMS 114 small cell lung
DMS 273 small cell lung = system: DMS 273 small cell lung
DU-145 prostate = system: DU-145 prostate
EKVX NSCLC = system: EKVX NSCLC
HCC-2998 colon = system: HCC-2998 colon
HCT-116 colon = system: HCT-116 colon
HCT-15 colon = system: HCT-15 colon
HL-60(TB) leukemia = system: HL-60(TB) leukemia
HOP-18 NSCLC = system: HOP-18 NSCLC
HOP-62 NSCLC = system: HOP-62 NSCLC
HOP-92 NSCLC = system: HOP-92 NSCLC
HS 578T breast = system: HS 578T breast
HT29 colon = system: HT29 colon
IGROV1 ovarian = system: IGROV1 ovarian
K-562 leukemia = system: K-562 leukemia
KM12 colon = system: KM12 colon
KM20L2 colon = system: KM20L2 colon
LOX IMVI melanoma = system: LOX IMVI melanoma
LXFL 529 NSCLC = system: LXFL 529 NSCLC
M14 melanoma = system: M14 melanoma
M19-MEL melanoma = system: M19-MEL melanoma
MALME-3M melanoma = system: MALME-3M melanoma
MDA-MB-231 breast = system: MDA-MB-231 breast
MDA-MB-435 = system: MDA-MB-435
MDA-N = system: MDA-N
MOLT-4 leukemia = system: MOLT-4 leukemia
NCI-H226 lung = system: NCI-H226 lung
NCI-H23 lung = system: NCI-H23 lung
NCI-H460 lung = system: NCI-H460 lung
NCI-H522 lung = system: NCI-H522 lung
NCI/ADR-RES ovarian = system: NCI/ADR-RES ovarian
OVCAR-3 ovarian = system: OVCAR-3 ovarian
OVCAR-4 ovarian = system: OVCAR-4 ovarian
OVCAR-5 ovarian = system: OVCAR-5 ovarian
OVCAR-8 ovarian = system: OVCAR-8 ovarian
PC-3 prostate = system: PC-3 prostate
RPMI-8226 leukemia = system: RPMI-8226 leukemia
RXF 393 renal = system: RXF 393 renal
SF-268 CNS = system: SF-268 CNS
SF-295 CNS = system: SF-295 CNS
SF-539 CNS = system: SF-539 CNS
SK-MEL-2 melanoma = system: SK-MEL-2 melanoma
SK-MEL-28 melanoma = system: SK-MEL-28 melanoma
SK-MEL-5 melanoma = system: SK-MEL-5 melanoma
SK-OV-3 ovarian = system: SK-OV-3 ovarian
SN12C renal = system: SN12C renal
SNB-19 CNS = system: SNB-19 CNS
SNB-75 CNS = system: SNB-75 CNS
SNB-78 CNS = system: SNB-78 CNS
SR leukemia = system: SR leukemia
SW-620 colon = system: SW-620 colon
T-47D breast = system: T-47D breast
TK-10 renal = system: TK-10 renal
U251 CNS = system: U251 CNS
UACC-257 melanoma = system: UACC-257 melanoma
UACC-62 melanoma = system: UACC-62 melanoma
UO-31 renal = system: UO-31 renal
XF 498 CNS = system: XF 498 CNS

## Cc1n(CC(C)C)c2c([n+]1C)C(=O)c1ccccc1C2=O
786-0 renal
  TGI: 3.41 µM
A498 renal
  TGI: 1.27 µM
A549 NSCLC
  TGI: 1.34 µM
ACHN renal
  TGI: 3.53 µM
BT-549 breast
  TGI: 0.61 µM
CAKI-1 renal
  TGI: > 21.7 µM
CCRF-CEM leukemia
  TGI: 27 µM
COLO 205 colon
  TGI: 0.0575 µM
DLD-1 colon
  TGI: 0.975 µM
DMS 114 small cell lung
  TGI: < 0.0255 µM
DMS 273 small cell lung
  TGI: 0.786 µM
DU-145 prostate
  TGI: 0.41 µM
EKVX NSCLC
  TGI: 0.649 µM
HCC-2998 colon
  TGI: 1.53 µM
HCT-116 colon
  TGI: 0.23 µM
HCT-15 colon
  TGI: 4.39 µM
HL-60(TB) leukemia
  TGI: 0.437 µM
HOP-18 NSCLC
  TGI: 3.63 µM
HOP-62 NSCLC
  TGI: 0.76 µM
HOP-92 NSCLC
  TGI: 4.44 µM
HS 578T breast
  TGI: 3.05 µM
HT29 colon
  TGI: 1.03 µM
IGROV1 ovarian
  TGI: 0.101 µM
K-562 leukemia
  TGI: > 100 µM
KM12 colon
  TGI: 1.6 µM
KM20L2 colon
  TGI: 1.6 µM
LOX IMVI melanoma
  TGI: 0.867 µM
LXFL 529 NSCLC
  TGI: 0.508 µM
M14 melanoma
  TGI: 1.06 µM
M19-MEL melanoma
  TGI: 0.216 µM
MALME-3M melanoma
  TGI: 0.28 µM
MDA-MB-231 breast
  TGI: 0.344 µM
MDA-MB-435
  TGI: 0.277 µM
MDA-N
  TGI: 0.314 µM
MOLT-4 leukemia
  TGI: 0.955 µM
NCI-H226 lung
  TGI: 1.27 µM
NCI-H23 lung
  TGI: 0.107 µM
NCI-H460 lung
  TGI: 1.26 µM
NCI-H522 lung
  TGI: 0.0386 µM
NCI/ADR-RES ovarian
  TGI: > 100 µM
OVCAR-3 ovarian
  TGI: 0.0961 µM
OVCAR-4 ovarian
  TGI: 1.02 µM
OVCAR-5 ovarian
  TGI: 0.824 µM
OVCAR-8 ovarian
  TGI: 0.937 µM
PC-3 prostate
  TGI: 0.337 µM
RPMI-8226 leukemia
  TGI: 8.37 µM
RXF 393 renal
  TGI: 6.19 µM
SF-268 CNS
  TGI: 0.155 µM
SF-295 CNS
  TGI: 1.65 µM
SF-539 CNS
  TGI: 0.532 µM
SK-MEL-2 melanoma
  TGI: 0.524 µM
SK-MEL-28 melanoma
  TGI: 2.98 µM
SK-MEL-5 melanoma
  TGI: 0.139 µM
SK-OV-3 ovarian
  TGI: 2.2 µM
SN12C renal
  TGI: 0.0671 µM
SNB-19 CNS
  TGI: 0.647 µM
SNB-75 CNS
  TGI: 1.55 µM
SNB-78 CNS
  TGI: 3.48 µM
SR leukemia
  TGI: 11.5 µM
SW-620 colon
  TGI: 1.4 µM
T-47D breast
  TGI: 0.441 µM
TK-10 renal
  TGI: 3.38 µM
U251 CNS
  TGI: 0.499 µM
UACC-257 melanoma
  TGI: 0.156 µM
UACC-62 melanoma
  TGI: 0.576 µM
UO-31 renal
  TGI: 3.55 µM
XF 498 CNS
  TGI: 1.46 µM
